{"source": "patent US20230277669A1", "about": "“USES OF UROLITHINS” (Amazentis SA, priority 2022, published 2023)", "key": {"[1]": {"system": "CAR-T cells specific for carcinoembryonic antigen (CEA)", "assay": "UA applied to previously frozen CEA-specific CAR-T cells", "type": "cell-based, human"}, "[2]": {"system": "FoxP3+ T-regulatory cells", "conditions": "cited from earlier work"}, "[3]": {"system": "Pgam5^-/- CD8^+ T cells", "assay": "In vitro stimulation of PGAM5-/- CD8+ cells in presence of UA", "type": "cell-based, PGAM5^-/- mice", "method": "(FIG. 5H) Immunofluorescence of PGAM5 (green) in CD3+ cells after in vitro stimulation with aCD3/aCD28 stimulation beads for six hours. Cells were stained with Mitotracker Red to display mitochondrial colocalisation in the DMSO control as opposed to cytosolic release in the UA sample (m, mitochondrial co-localization; c, cytoplasmic localization) Scale=5 um. (FIG. 5I) In vitro stimulation of PGAM5^-/- CD8+ cells: Percentage of TSCM after 48 h of stimulation with aCD3/aCD28 stimulation beads in the presence of UA. All data depicts mean ± SD, n=4 per group. Statistics shown here depict unpaired, two-sided t-test and Mann-Whitney test (I; (DMSO vs UA25; DMSO vs UA50). *p < 0.05; n.s. not significant. (FIG. 5J) Percentage of CD95+ er 48 h of stimulation with aCD3/aCD28 stimulation beads in the presence of UA. (FIG. 5K) CD95+er 48 h of stimulation with aCD3/aCD28 stimulation beads in the presence of UA.\n(FIG. 5L) UA induces PGC-1α expression in stimulated CD8+ cells. PGC-1α MFI at 48 h upon stimulation, as assessed by intracellular staining, is shown (n=3). One of two independent experiments are shown. Data are mean ± SD, statistical analysis was performed by two-sided t-test (p**<0.01). (FIG. 5M) Mitochondrial content of TIL CD8+ cells harvested from APTK-carrying mice, fed UA or control diet as depicted in FIG. 1J. Assessed by Mitotracker Red staining. Data are mean ± SD, *p < 0.05 by two-sided t-test. (FIG. 5N) Mitophagy and subsequent PGAM5 release drive PGC-1α upregulation. PGC-1α expression of CD8+ cells derived from Pink1^-/- KO mice upon 48 h stimulation in vitro in the presence of UA or DMSO control (n=4). Data are mean ± SD, statistical analysis was performed by two-sided t-test. Depicts one of two independent experiments. (FIG. 5O) Mitophagy and subsequent PGAM5 release drive PGC-1 α upregulation. PGC-1α expression of CD8+ cells derived from PGAM5^-^/- mice upon 48 h stimulation in vitro in the presence of UA or DMSO control (n=4). Data are mean ± SD, statistical analysis was performed by two-sided t-test. […] Cells were co-treated with DMSO, UA and an inhibitor of PGC-1α (PGC-1αi) as indicated (n=4). One of two independent experiments are shown. Data are mean ± SD, statistical analysis was performed by two-sided t-test (p**<0.01; ***p <0.001; n.s. not significant).(FIG. 5Q) Urolithin A induces TSCM in human CD8+ cells: Schematic overview. PBMC were isolated from healthy donors, prior to T cell purification and in vitro stimulation via aCD3/aCD28 stimulation beads at the presence of UA or DMSO control. (FIG. 5R) Quantification of human TSCM (n=4). Representative data of one out of five donors with the same result are shown. (FIG. 5S) Quantification of TMRM^loCD8+ human cells 48 h after activation in the presence of UA or DMSO control (n=4). (FIG. 5T) TCF1 expression in human CD8 cells as assessed by flow cytometry (n=4). All data are mean ± SD; statistical analysis was performed by two-sided t-test (*p < 0.05; p**<0.01; p****0.0001).\n(FIG. 8B) qPCR analysis of selected Wnt target genes 24 h after stimulation (n=4). Data are mean ± SEM, statistical analysis was performed by two-sided t-test (* p<0.05, ** p<0.01, *** p<0.001). (FIG. 8C) CD8+ cells from PGAM5^-/- mice display an adequate mitophagy response upon UA treatment: Flow cytometry analysis of lysosome formation after six hours of in vitro stimulation via aCD3/aCD28 stimulation beads (n=4). (FIG. 8D) CD8+ cells from PGAM5^-/- mice display an adequate mitophagy response upon UA treatment: Mitotracker Red signal after 24 h in PGAM5^-/- CD8+ stimulated in vitro at the presence of UA or vehicle control. Congruent histograms are shown. Data are mean ± SD, statistical analysis was performed by two-sided t-test (* p<0.05, ** p<0.01, *** p<0.001). (FIG. 8E) Cytosolic fractionation Western blot of Pink1^-/- CD3+ cells 6 h after stimulation with plate-bound aCD3/aC28 antibodies in the presence of Urolithin A or DMSO control. […]"}}}
{"smiles": "O=c1oc2cc(O)ccc2c2ccc(O)cc12", "note": "[Urolithin A]", "values": [{"measurement": "CAR TSCM formation", "setting": "[1]", "value": "strongly enhanced CAR TSCM formation"}, {"measurement": "FoxP3+ T-regulatory cells", "setting": "[2]", "value": "expanding FoxP3+ T-regulatory cells"}, {"measurement": "mitochondrial content (Mitotracker Red)", "setting": "[3]; 24 h", "value": "reduced mitochondrial content"}, {"measurement": "PGC-1α expression", "setting": "[3]; 48 h", "value": "failed to enhance"}, {"measurement": "TCF1", "setting": "[3]; 48 h", "value": "failed to upregulate"}, {"measurement": "UA-dependent expansion of CD44-CD62L+Sca1hi TSCM cells", "setting": "[3]; 48 h", "value": "blocked the UA-dependent expansion"}, {"measurement": "memory marker CD95", "setting": "[3]; 48 h", "value": "failed to upregulate"}, {"measurement": "lysosome formation", "setting": "[3]; six hours", "value": "still enhanced lysosome formation"}]}
